Reference: patent US7771761B2, “Cheese with calcium lactate crystal inhibitor” (Regents of The University of Minnesota, priority 2005, dated 2010)
Structures can show the parent of a compound that is named as a salt. Where two headings read alike, the source gives them in different places.

Tests used:
[1] = Solubility model Example 4: visual inspection for crystals on sand paper in calcium lactate solution; type: physicochemical; conditions: 1.5% additive in 5.31 g calcium lactate/100 g solution, pH 6.6, 14 days at 7° C.
Description: (§1) Demineralized water (60° C.) was then added to the flask to obtain a final weight of 100 g and the flask was stirred to dissolve the calcium lactate powder. Subsequently a piece of 1.5×3 cm sand paper was added to the flask to provide a nucleation site for calcium lactate crystal formation and the flask was sealed with a rubber stopper.
(§2) After preparation a sample of each solution was collected.
(§3) Subsequently all solutions were stored at 7° C. for 14 days. After 14 days the flasks were visually inspected for the presence of crystals on the sand paper and the solutions were filtered at 7° C. through filter paper (Whatman 4; Whatman International Ltd., Maidstone, England).

[2] = Solubility model Example 4: lactate analysis by HPLC; conditions: for Lactate analysis After Storage: 1.5% additive, 14 days at 7° C., filtered supernatant
Description: as §1, §2, §3
(§4) The supernatant and the sample collected prior to storage were analyzed for lactic acid using High Performance Liquid Chromatography (HPLC) and for calcium content by Atomic Absorption Spectroscopy (AAS), providing the results reported below in Tables II and III.

[3] = Solubility model Example 4: calcium analysis by Atomic Absorption Spectroscopy; conditions: for Calcium analysis After Storage: 1.5% additive, 14 days at 7° C., filtered supernatant
Description: as §1, §2, §3, §4

[4] = Solubility model Example 3: filtrate analysis of calcium lactate solutions with sodium gluconate; type: physicochemical; conditions: 48 hours at about 40° F., cold filtered
Description: A test was run to determine the ability of ionic gluconate provided by sodium gluconate in an aqueous solution to bind with lactate over time, to thereby model the believed primary phenomenon resulting in reduced formation of calcium lactate crystal. In each sample of the model, 14.1 g of calcium lactate pentahydrate (CH3CHOHCOO)2 Ca.5H2O) was used to provide 10 g of calcium lactate (1.83 g calcium ion, 8.17 g lactate ion). Different amounts of sodium gluconate (NaC6H11O7), amounts shown in Table I below) were combined with the calcium lactate pentahydrate and diluted to 100 ml with water. The samples were prepared at room temperature and each mixed well. The samples were then refrigerated at about 40° F. for 48 hours, with each sample being mixed several times during the 48 hour holding period. After the holding period, the samples were cold filtered (40° F.) and the filtrate analyzed for lactate, gluconate and calcium concentrations.

presence of crystals on the sand paper (visual inspection) [1] | Lactate analysis Initial Concentration [2] | Lactate analysis After Storage [2] | Calcium analysis Initial Concentration [3] | Calcium analysis After Storage [3] | Lactate analysis Initial Concentration ([2]; 0 days, 1.5 %, pH 6.6) | Calcium analysis Initial Concentration ([3]; 0 days, 1.5 %, pH 6.6) | SMILES | FILTRATE RESULTS C6H11O7(%) ([4]; 5 g NaC6H11O7 added to 14.1 g calcium lactate pentahydrate in 100 ml) | FILTRATE RESULTS C6H11O7(%) ([4]; 10 g NaC6H11O7 added to 14.1 g calcium lactate pentahydrate in 100 ml) | FILTRATE RESULTS C6H11O7(%) ([4]; 15 g NaC6H11O7 added to 14.1 g calcium lactate pentahydrate in 100 ml) | FILTRATE RESULTS C6H11O7(%) ([4]; 20 g NaC6H11O7 added to 14.1 g calcium lactate pentahydrate in 100 ml) | FILTRATE RESULTS C6H11O7(%) ([4]; 25 g NaC6H11O7 added to 14.1 g calcium lactate pentahydrate in 100 ml)
no crystals were visually observed | 4.33% | 4.33% | 1.05% | 1.04% | – | – | O=C(O)[C@H](O)[C@@H](O)[C@H](O[C@@H]1O[C@H](CO)[C@H](O)[C@H](O)[C@H]1O)[C@H](O)CO [Sodium lactobionate, lactobionic acid] | – | – | – | – | –
no crystals were visually observed | – | 4.47% | – | 1.06% | 4.43% | 1.07% | O=C(O)CC(O)C(=O)O (stereo not drawn) [Sodium malate, malic acid disodium salt] | – | – | – | – | –

SMILES | presence of crystals on the sand paper (visual inspection) [1] | Lactate analysis Initial Concentration [2] | Lactate analysis After Storage [2] | Calcium analysis Initial Concentration [3] | Calcium analysis After Storage [3] | Lactate analysis Initial Concentration ([2]; 0 days, 1.5 %, pH 6.6) | Calcium analysis Initial Concentration ([3]; 0 days, 1.5 %, pH 6.6) | FILTRATE RESULTS C6H11O7(%) ([4]; 5 g NaC6H11O7 added to 14.1 g calcium lactate pentahydrate in 100 ml) | FILTRATE RESULTS C6H11O7(%) ([4]; 10 g NaC6H11O7 added to 14.1 g calcium lactate pentahydrate in 100 ml) | FILTRATE RESULTS C6H11O7(%) ([4]; 15 g NaC6H11O7 added to 14.1 g calcium lactate pentahydrate in 100 ml) | FILTRATE RESULTS C6H11O7(%) ([4]; 20 g NaC6H11O7 added to 14.1 g calcium lactate pentahydrate in 100 ml) | FILTRATE RESULTS C6H11O7(%) ([4]; 25 g NaC6H11O7 added to 14.1 g calcium lactate pentahydrate in 100 ml)
O=C([O-])[C@H](O)[C@@H](O)[C@H](O)[C@H](O)CO.[Na+] [Sodium gluconate, sodium gluconate] | no crystals were visually observed | – | 4.41% | – | 1.08% | – | – | 2.97% | 7.55% | 11.15% | 14.21% | 16.61%
